# Measurements published in ChEMBL document CHEMBL3885861, “Open TG-GATES”.
# Organism: Rattus norvegicus
# Test: Open TG-GATES - Regimen: Single
# Type: toxicity, organism-based, Sprague-Dawley
# Set-up: regimen Single, gender Male, age 6 weeks
# Conditions: in vivo, po, 0 mg/kg, route gavage, dose level Control; for KIDNEY_L / KIDNEY_R / KIDNEY_TOTAL: tissue Kidney; for LIVER: tissue Liver; for ALP / ALT / AST / BUN / CRE / Ca / DBIL / GLC / IP / K / LDH / Na / PL / RALB / TBIL / TC / TP / gamma-GTP / TG: tissue Plasma
structure (smiles),measurement,setting,value
O=C(O)c1cn(C2CC2)c2cc(N3CCNCC3)c(F)cc2c1=O [CIPROFLOXACIN],TERMINAL_BW,3 h,180.9 g
same,Bas,"3 h, tissue Blood",0%
same,Eos,"3 h, tissue Blood",0.6%
same,Fbg,"3 h, tissue Blood",202.2 mg/dL
same,Hb,"3 h, tissue Blood",13 g/dL
same,MCH,"3 h, tissue Blood",21.8 pg
same,MCV,"3 h, tissue Blood",65.5 fL
same,Mono,"3 h, tissue Blood",6%
same,PT,"3 h, tissue Blood",12.5 s
same,Plat,"3 h, tissue Blood",103.5 x10_4/uL
same,RBC,"3 h, tissue Blood",598.8 x10_4/ul
same,Ret,"3 h, tissue Blood",9.9%
same,WBC,"3 h, tissue Blood",128.2 x10_2/uL
same,KIDNEY_L,3 h,0.8 g
same,KIDNEY_R,3 h,0.9 g
same,KIDNEY_TOTAL,3 h,1.7 g
same,LIVER,3 h,8.3 g
same,ALP,3 h,1050.6 IU/L
same,ALT,3 h,38.4 IU/L
same,AST,3 h,70.6 IU/L
same,BUN,3 h,13.8 mg/dL
same,CRE,3 h,0.4 mg/dL
same,Ca,3 h,10.8 mg/dL
same,DBIL,3 h,0.008 mg/dL
same,GLC,3 h,186.6 mg/dL
same,IP,3 h,9.5 mg/dL
same,K,3 h,4.9 meq/L
same,LDH,3 h,92.6 IU/L
same,Na,3 h,138.2 meq/L
same,PL,3 h,130.8 mg/dL
same,RALB,3 h,3.8 g/dL
same,TBIL,3 h,0.4 mg/dL
same,TC,3 h,73.6 mg/dL
same,TP,3 h,5.4 g/dL
same,gamma-GTP,3 h,1.8 IU/L
same,TERMINAL_BW,6 h,182.4 g
same,Bas,"6 h, tissue Blood",0%
same,Eos,"6 h, tissue Blood",0.6%
same,Fbg,"6 h, tissue Blood",211 mg/dL
same,Hb,"6 h, tissue Blood",12.6 g/dL
same,Lym,"6 h, tissue Blood",77%
same,MCH,"6 h, tissue Blood",21.8 pg
same,MCV,"6 h, tissue Blood",66.3 fL
same,Mono,"6 h, tissue Blood",6.8%
same,Neu,"6 h, tissue Blood",15.6%
same,PT,"6 h, tissue Blood",12.5 s
same,Plat,"6 h, tissue Blood",103 x10_4/uL
same,RBC,"6 h, tissue Blood",579 x10_4/ul
same,Ret,"6 h, tissue Blood",10.8%
same,WBC,"6 h, tissue Blood",125 x10_2/uL
same,KIDNEY_L,6 h,0.9 g
same,KIDNEY_R,6 h,0.9 g
same,KIDNEY_TOTAL,6 h,1.8 g
same,LIVER,6 h,8.5 g
same,ALP,6 h,839.4 IU/L
same,ALT,6 h,36.6 IU/L
same,BUN,6 h,10.4 mg/dL
same,CRE,6 h,0.5 mg/dL
same,DBIL,6 h,0.024 mg/dL
same,GLC,6 h,186.4 mg/dL
same,IP,6 h,9.9 mg/dL
same,K,6 h,5.1 meq/L
same,LDH,6 h,103.2 IU/L
same,Na,6 h,138.2 meq/L
same,PL,6 h,136 mg/dL
same,RALB,6 h,3.7 g/dL
same,TBIL,6 h,0.4 mg/dL
same,TC,6 h,80.6 mg/dL
same,TG,6 h,42.2 mg/dL
same,TP,6 h,5.5 g/dL
same,gamma-GTP,6 h,1.4 IU/L
same,TERMINAL_BW,9 h,177.8 g
same,APTT,"9 h, tissue Blood",17 s
same,Bas,"9 h, tissue Blood",0%
same,Eos,"9 h, tissue Blood",0.4%
same,Fbg,"9 h, tissue Blood",213.4 mg/dL
same,Hb,"9 h, tissue Blood",12.4 g/dL
same,Ht,"9 h, tissue Blood",37.5%
same,Lym,"9 h, tissue Blood",82.6%
same,MCH,"9 h, tissue Blood",21.7 pg
same,MCHC,"9 h, tissue Blood",33.1%
same,MCV,"9 h, tissue Blood",65.6 fL
same,Mono,"9 h, tissue Blood",6.8%
same,Neu,"9 h, tissue Blood",10%
same,PT,"9 h, tissue Blood",11.7 s
same,Plat,"9 h, tissue Blood",116.2 x10_4/uL
same,RBC,"9 h, tissue Blood",572.4 x10_4/ul
same,Ret,"9 h, tissue Blood",10.6%
same,WBC,"9 h, tissue Blood",115.5 x10_2/uL
same,KIDNEY_L,9 h,0.8 g
same,KIDNEY_R,9 h,0.8 g
same,KIDNEY_TOTAL,9 h,1.7 g
same,LIVER,9 h,7.5 g
same,ALP,9 h,766 IU/L
same,ALT,9 h,32.4 IU/L
same,AST,9 h,68.4 IU/L
same,BUN,9 h,10.6 mg/dL
same,CRE,9 h,0.5 mg/dL
same,Ca,9 h,10.9 mg/dL
same,DBIL,9 h,0.056 mg/dL
same,GLC,9 h,193 mg/dL
same,IP,9 h,10.9 mg/dL
same,K,9 h,4.9 meq/L
same,LDH,9 h,92.4 IU/L
same,Na,9 h,139.2 meq/L
same,PL,9 h,120.4 mg/dL
same,RALB,9 h,3.8 g/dL
same,TBIL,9 h,0.3 mg/dL
same,TC,9 h,71.8 mg/dL
same,TG,9 h,29 mg/dL
same,TP,9 h,5.5 g/dL
same,gamma-GTP,9 h,1.4 IU/L
same,TERMINAL_BW,24 h,194.5 g
same,APTT,"24 h, tissue Blood",16.4 s
same,Bas,"24 h, tissue Blood",0%
same,Eos,"24 h, tissue Blood",1%
same,Fbg,"24 h, tissue Blood",209.2 mg/dL
same,Hb,"24 h, tissue Blood",13.1 g/dL
same,Lym,"24 h, tissue Blood",80%
same,MCH,"24 h, tissue Blood",22 pg
same,MCHC,"24 h, tissue Blood",33.4%
same,MCV,"24 h, tissue Blood",65.8 fL
same,Mono,"24 h, tissue Blood",7.2%
same,Plat,"24 h, tissue Blood",103.8 x10_4/uL
same,RBC,"24 h, tissue Blood",598.2 x10_4/ul
same,Ret,"24 h, tissue Blood",9.7%
same,WBC,"24 h, tissue Blood",132.8 x10_2/uL
same,KIDNEY_L,24 h,0.9 g
same,KIDNEY_R,24 h,0.9 g
same,KIDNEY_TOTAL,24 h,1.8 g
same,LIVER,24 h,9.8 g
same,ALP,24 h,1038.8 IU/L
same,ALT,24 h,47 IU/L
same,AST,24 h,74.8 IU/L
same,BUN,24 h,17.4 mg/dL
same,CRE,24 h,0.5 mg/dL
same,Ca,24 h,11.3 mg/dL
same,DBIL,24 h,0.074 mg/dL
same,GLC,24 h,187.2 mg/dL
same,IP,24 h,8.3 mg/dL
same,K,24 h,4.7 meq/L
same,LDH,24 h,96.8 IU/L
same,Na,24 h,138.8 meq/L
same,PL,24 h,157.2 mg/dL
same,RALB,24 h,4 g/dL
same,TBIL,24 h,0.3 mg/dL
same,TC,24 h,89 mg/dL
same,TG,24 h,89.4 mg/dL
same,TP,24 h,5.7 g/dL
same,gamma-GTP,24 h,1.2 IU/L
